Like-named read-outs stand apart in the source and are kept apart here. Starred links: 1 amine or outer side, 2 acyl side, 3 side chain; linkers in the order of their positions; H or OH if unused. Non-standard residues stand in square brackets, D forms with d. Groups on a side chain read outwards from the residue. *: point of attachment. C20 diacid = O=C(O)CCCCCCCCCCCCCCCCCCC(=O)*; C18 diacid = O=C(O)CCCCCCCCCCCCCCCCC(=O)*; γGlu = O=C(O)[C@H](CCC(=O)[*:2])N[*:1]; εLys = N[C@@H](CCCCN[*:1])C(=O)[*:2]; AEEA = NCCOCCOCC(=O)O; Aib = CC(C)(N)C(=O)O
Assays:
Type in all cases: cell-based
Details in all cases: CreLuc reporter gene assay
hGIPR = target: T1, hGIPR (Homo sapiens, UniProt P48546); experiment: hGIPR CreLuc reporter gene assay in 0.5% and 100% plasma
T1 construct: expressed in transfected cells; host or cells: CHO cells carrying a CRE-luciferase reporter gene
T1 sequence (P48546 22-466): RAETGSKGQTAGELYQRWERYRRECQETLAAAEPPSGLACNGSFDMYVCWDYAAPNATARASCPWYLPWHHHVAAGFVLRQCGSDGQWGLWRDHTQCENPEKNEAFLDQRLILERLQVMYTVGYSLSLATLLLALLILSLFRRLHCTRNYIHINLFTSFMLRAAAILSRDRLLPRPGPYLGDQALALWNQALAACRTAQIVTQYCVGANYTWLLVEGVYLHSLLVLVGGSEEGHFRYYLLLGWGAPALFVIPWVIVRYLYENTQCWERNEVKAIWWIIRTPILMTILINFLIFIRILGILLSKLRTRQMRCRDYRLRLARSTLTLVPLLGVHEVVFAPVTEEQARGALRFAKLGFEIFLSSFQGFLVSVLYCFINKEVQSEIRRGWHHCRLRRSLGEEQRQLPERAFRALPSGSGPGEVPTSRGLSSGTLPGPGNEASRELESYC
Summary of the method: (§1)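 HEK-293 cells co-expressing GLP-1 or NPY2 receptor and CHO cells expressing GIP receptor, each carrying a CRE-driven luciferase reporter, were stimulated with peptides for 4 hours at 37 °C. Luminescence was read after Bright-Glo addition. EC50 came from 8-point, four-decade curves fitted by variable-slope non-linear regression.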

hGLP1R = target: T2, hGLP1R (Homo sapiens, UniProt P43220); experiment: hGLP1R CreLuc reporter gene assay in 0.5% and 100% plasma
T2 construct: expressed in transfected cells; host or cells: HEK-293 cells carrying a CRE-luciferase reporter gene
Summary of the method: as §1

hNPY2R = target: T3, hNPY2R (Homo sapiens, UniProt P49146); experiment: hNPY2R CreLuc reporter gene assay in 0.5% and 100% plasma
T3 construct: expressed in transfected cells; host or cells: HEK-293 cells carrying a CRE-luciferase reporter gene
T3 sequence (P49146 1-381): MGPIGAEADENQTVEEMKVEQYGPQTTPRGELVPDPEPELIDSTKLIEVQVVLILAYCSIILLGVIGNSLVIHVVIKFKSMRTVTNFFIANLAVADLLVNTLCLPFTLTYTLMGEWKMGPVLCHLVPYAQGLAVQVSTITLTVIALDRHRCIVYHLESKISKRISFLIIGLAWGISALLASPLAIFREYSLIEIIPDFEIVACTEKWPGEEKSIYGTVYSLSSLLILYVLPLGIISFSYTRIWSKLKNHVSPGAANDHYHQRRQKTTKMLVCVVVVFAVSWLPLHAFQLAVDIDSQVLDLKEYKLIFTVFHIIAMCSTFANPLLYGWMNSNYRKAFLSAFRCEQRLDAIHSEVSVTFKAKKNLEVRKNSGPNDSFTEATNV
Summary of the method: as §1

[1] = 0.5% human plasma, read-out: hGIPR 0.5% hP
[2] = 0.5% human plasma, read-out: hGLP1R 0.5% hP
[3] = 0.5% human plasma, read-out: hNPY2R 0.5% hP
[4] = 100% human plasma, read-out: hGLP1R 100% hP
[5] = 100% human plasma, read-out: hNPY2R 100% hP
[6] = 100% human plasma, read-out: hGIPR 100% hP

T2 sequence (P43220 24-463): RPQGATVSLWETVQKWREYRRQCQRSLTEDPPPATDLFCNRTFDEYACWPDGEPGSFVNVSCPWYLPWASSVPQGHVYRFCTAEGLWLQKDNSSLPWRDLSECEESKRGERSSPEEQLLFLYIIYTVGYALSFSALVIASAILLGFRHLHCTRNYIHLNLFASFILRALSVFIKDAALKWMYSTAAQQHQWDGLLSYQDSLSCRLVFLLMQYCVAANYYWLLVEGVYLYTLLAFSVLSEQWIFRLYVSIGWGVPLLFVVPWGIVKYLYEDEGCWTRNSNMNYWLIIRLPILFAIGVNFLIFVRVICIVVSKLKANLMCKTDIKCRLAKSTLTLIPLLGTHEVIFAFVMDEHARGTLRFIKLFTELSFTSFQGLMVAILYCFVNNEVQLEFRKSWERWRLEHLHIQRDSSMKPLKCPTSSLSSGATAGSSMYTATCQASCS

Substance | EC50 (hGIPR; [1]) [nM] | EC50 (hGLP1R; [2]) [nM] | EC50 (hNPY2R; [3]) [nM] | EC50 (hGLP1R; [4]) [nM] | EC50 (hNPY2R; [5]) [nM] | EC50 (hGIPR; [6]) [nM]
H-Y[Aib]EGTFTSDYSI[Aib]LEKQAQ[Aib]AFVQWLIK([AEEA-AEEA-γGlu-γGlu-γGlu-γGlu-C20 diacid])GGPEEGASLRHYYNWLTRQRY-NH2 [Compound 193, Y-Aib-E-G-T-F-T-S-D-Y-S-I-Aib-L-E-K-Q-A-Q-Aib-A-F-V-Q-W-L-I-K(1,3)-GGPEEGASLRHYYNWLTRQRY-NH2.C20DA-gGlu-gGlu-gGlu-gGlu-OEG-OEG(1,2)] | 0.5 | 0.36 | 13.6 | – | – | –
H-Y[Aib]EGTFTSDYSI[Aib]LEKQAQ[Aib]AFVQWLIK([AEEA-AEEA-γGlu-γGlu-γGlu-γGlu-γGlu-C18 diacid])GGPSEPASLRHYYNWLTRQRY-NH2 [Compound 142, Y-Aib-E-G-T-F-T-S-D-Y-S-I-Aib-L-E-K-Q-A-Q-Aib-A-F-V-Q-W-L-I-K(1,3)-GGPSEPASLRHYYNWLTRQRY-NH2.C18DA-gGlu-gGlu-gGlu-gGlu-gGlu-OEG-OEG(1,2)] | 0.28 | 0.12 | 13 | – | 28.2 | 1.15
H-Y[Aib]EGTFTSDYSI[Aib]LEKQAQ[Aib]AFVQWLIK([AEEA-AEEA-γGlu-γGlu-γGlu-γGlu-γGlu-C20 diacid])GGPSEPASLRHYYNWLTRQRY-NH2 [Compound 111, Y-Aib-E-G-T-F-T-S-D-Y-S-I-Aib-L-E-K-Q-A-Q-Aib-A-F-V-Q-W-L-I-K(1,3)-GGPSEPASLRHYYNWLTRQRY-NH2.C20DA-gGlu-gGlu-gGlu-gGlu-gGlu-OEG-OEG(1,2)] | 0.55 | 0.12 | 13.4 | – | 36.8 | –
H-Y[Aib]EGTFTSDYSI[Aib]LEKQAQ[Aib]AFVQWLIK([AEEA-AEEA-γGlu-γGlu-γGlu-γGlu-γGlu-C20 diacid])GGPSSGASLRHYYNWLTRQRY-NH2 [Compound 112, Y-Aib-E-G-T-F-T-S-D-Y-S-I-Aib-L-E-K-Q-A-Q-Aib-A-F-V-Q-W-L-I-K(1,3)-GGPSSGASLRHYYNWLTRQRY-NH2.C20DA-gGlu-gGlu-gGlu-gGlu-gGlu-OEG-OEG(1,2)] | 0.19 | 0.06 | – | 1.7 | 27.6 | 0.83
H-Y[Aib]EGTFTSDYSI[Aib]LEKQAQ[Aib]AFVQWLIK([Glu-Glu-Glu-Glu-C18 diacid])GGPSEGASLRHYYNWLTRQRY-NH2 [Compound 281, Y-Aib-E-G-T-F-T-S-D-Y-S-I-Aib-L-E-K-Q-A-Q-Aib-A-F-V-Q-W-L-I-K(1,3)-GGPSEGASLRHYYNWLTRQRY-NH2.C18DA-E-E-E-E(1,2)] | 0.28 | 0.07 | 23 | 1.78 | – | 0.69
H-Y[Aib]EGTFTSDYSI[Aib]LEKQAQ[Aib]AFVQWLIK([γGlu-γGlu-γGlu-γGlu-γGlu-C18 diacid])GGPSEGASLRHYYNWLTRQRY-NH2 [Compound 250, Y-Aib-E-G-T-F-T-S-D-Y-S-I-Aib-L-E-K-Q-A-Q-Aib-A-F-V-Q-W-L-I-K(1,3)-GGPSEGASLRHYYNWLTRQRY-NH2.C18DA-gGlu-gGlu-gGlu-gGlu-gGlu(1,2)] | 0.2 | 0.08 | 12.2 | – | – | 1.25
H-Y[Aib]EGTFTSDYSI[Aib]LEKQAQ[Aib]AFVQWLIK([γGlu-γGlu-γGlu-γGlu-γGlu-C20 diacid])GGPESPASLRHYYNWLTRQRY-NH2 [Compound 11, Y-Aib-E-G-T-F-T-S-D-Y-S-I-Aib-L-E-K-Q-A-Q-Aib-A-F-V-Q-W-L-I-K(1,3)-GGPESPASLRHYYNWLTRQRY-NH2.C20DA-gGlu-gGlu-gGlu-gGlu-gGlu(1,2)] | 0.17 | 0.11 | 10.3 | – | – | –
H-Y[Aib]EGTFTSDYSI[Aib]LEKQAQ[Aib]AFVQWLIK([γGlu-γGlu-γGlu-γGlu-γGlu-γGlu-C18 diacid])GGPSEGASLRHYYNWLTRQRY-NH2 [Compound 252, Y-Aib-E-G-T-F-T-S-D-Y-S-I-Aib-L-E-K-Q-A-Q-Aib-A-F-V-Q-W-L-I-K(1,3)-GGPSEGASLRHYYNWLTRQRY-NH2.C18DA-gGlu-gGlu-gGlu-gGlu-gGlu-gGlu(1,2)] | 0.29 | 0.1 | – | 2.59 | 33.5 | 1.25
H-Y[Aib]EGTFTSDYSI[Aib]LEKQAQ[Aib]AFVQWLIK([εLys-γGlu-γGlu-γGlu-γGlu-γGlu-C18 diacid])GGPEEGASLRHYYNWLTRQRY-NH2 [Compound 143, Y-Aib-E-G-T-F-T-S-D-Y-S-I-Aib-L-E-K-Q-A-Q-Aib-A-F-V-Q-W-L-I-K(1,3)-GGPEEGASLRHYYNWLTRQRY-NH2.C18DA-gGlu-gGlu-gGlu-gGlu-gGlu-eLys(1,2)] | 0.22 | 0.13 | 13.1 | 4.24 | 42.2 | –
H-Y[Aib]EGTFTSDYSI[Aib]LEKQAQ[Aib]AFVQWLIK([εLys-γGlu-γGlu-γGlu-γGlu-γGlu-C18 diacid])GGPESGASLRHYYNWLTRQRY-NH2 [Compound 60, Y-Aib-E-G-T-F-T-S-D-Y-S-I-Aib-L-E-K-Q-A-Q-Aib-A-F-V-Q-W-L-I-K(1,3)-GGPESGASLRHYYNWLTRQRY-NH2.C18DA-gGlu-gGlu-gGlu-gGlu-gGlu-eLys(1,2)] | 0.33 | 0.08 | – | 1.69 | 23.1 | 0.35

These reach a lower EC50 (hGIPR; [1]). Values come first.

EC50 (hGIPR; [1]) [nM] | EC50 (hGLP1R; [2]) [nM] | EC50 (hNPY2R; [3]) [nM] | EC50 (hGLP1R; [4]) [nM] | EC50 (hNPY2R; [5]) [nM] | EC50 (hGIPR; [6]) [nM] | Substance
0.12 | 0.09 | – | 4.17 | 53.4 | – | H-Y[Aib]EGTFTSDYSI[Aib]LEKQAQ[Aib]AFVQWLIK([AEEA-AEEA-γGlu-γGlu-γGlu-γGlu-γGlu-C18 diacid])GGPESGASLRHYYNWLTRQRY-NH2 [Compound 55, Y-Aib-E-G-T-F-T-S-D-Y-S-I-Aib-L-E-K-Q-A-Q-Aib-A-F-V-Q-W-L-I-K(1,3)-GGPESGASLRHYYNWLTRQRY-NH2.C18DA-gGlu-gGlu-glu-gGlu-gGlu-OEG-OEG(1,2)]
0.16 | 0.11 | 12.8 | – | 28.2 | 0.95 | H-Y[Aib]EGTFTSDYSI[Aib]LEKQAQ[Aib]AFVQWLIK([AEEA-AEEA-γGlu-γGlu-γGlu-γGlu-γGlu-C18 diacid])GGPSEGASLRHYYNWLTRQRY-NH2 [Compound 246, Y-Aib-E-G-T-F-T-S-D-Y-S-I-Aib-L-E-K-Q-A-Q-Aib-A-F-V-Q-W-L-I-K(1,3)-GGPSEGASLRHYYNWLTRQRY-NH2.C18DA-gGlu-gGlu-gGlu-gGlu-gGlu-OEG-OEG(1,2)]
0.16 | 0.07 | 12.2 | – | 49.3 | 1.15 | H-Y[Aib]EGTFTSDYSI[Aib]LEKQAQ[Aib]AFVQWLIK([AEEA-AEEA-γGlu-γGlu-γGlu-γGlu-γGlu-C20 diacid])GGPESGASLRHYYNWLTRQRY-NH2 [Compound 32, Y-Aib-E-G-T-F-T-S-D-Y-S-I-Aib-L-E-K-Q-A-Q-Aib-A-F-V-Q-W-L-I-K(1,3)-GGPESGASLRHYYNWLTRQRY-NH2.C20DA-gGlu-gGlu-gGlu-gGlu-gGlu-OEG-OEG(1,2)]
0.13 | 0.09 | 13.2 | – | 50.6 | 1.38 | H-Y[Aib]EGTFTSDYSI[Aib]LEKQAQ[Aib]AFVQWLIK([γGlu-γGlu-γGlu-γGlu-γGlu-C18 diacid])GGPESGASLRHYYNWLTRQRY-NH2 [Compound 53, Y-Aib-E-G-T-F-T-S-D-Y-S-I-Aib-L-E-K-Q-A-Q-Aib-A-F-V-Q-W-L-I-K(1,3)-GGPESGASLRHYYNWLTRQRY-NH2.C18DA-gGlu-gGlu-gGlu-gGlu-gGlu(1,2)]
0.14 | 0.11 | 11.9 | 4.76 | 45.8 | – | H-Y[Aib]EGTFTSDYSI[Aib]LEKQAQ[Aib]AFVQWLIK([γGlu-γGlu-γGlu-γGlu-γGlu-C18 diacid])GGPESPASLRHYYNWLTRQRY-NH2 [Compound 12, Y-Aib-E-G-T-F-T-S-D-Y-S-I-Aib-L-E-K-Q-A-Q-Aib-A-F-V-Q-W-L-I-K(1,3)-GGPESPASLRHYYNWLTRQRY-NH2.C18DA-gGlu-gGlu-gGlu-gGlu-gGlu(1,2)]
